ChEMBL document CHEMBL5620416, “Design, synthesis and development of a dual inhibitor of Topoisomerase 1 and poly (ADP-ribose) polymerase 1 for efficient killing of cancer cells” (Eur J Med Chem, 2023)
The source made the active and inactive calls. The calls are words filed in the database; no cut-off is given here.

How the values were obtained:
HCT-116 [1] = experiment: Induction of cell cycle arrest in human HCT-116 cells assessed as accumulation of cells at S phase at 20 uM incubated for 48 hrs by PI staining based flow cytometry analysis (reference value: 17%); format: functional
HCT-116 [2] = experiment: Induction of cell cycle arrest in human HCT-116 cells assessed as accumulation of cells at Sub-G1 phase at 10 uM incubated for 48 hrs by PI staining based flow cytometry analysis (reference value: 2.7 +/- 0.4%); format: functional
HCT-116 [3] = experiment: Induction of DNA double stranded break in human HCT-116 cells assessed as increase in gammaH2AX level at 20 uM after 4 to 8 hrs by immunofluorescence assay; format: functional, cell-based; conditions: time 4-8 hrs
[4] = system: DNA topoisomerase 1/Deoxyribonucleic acid (Homo sapiens); experiment: Induction of TOP1-DNA covalent complex stabilization in human HCT-116 cells after 2 to 6 hrs by RADAR assay; format: cell-based; conditions: dose 10-20 µM, time 2-6 hrs
HCT-116 [5] = experiment: Induction of cell cycle arrest in human HCT-116 cells assessed as accumulation of cells at G2 phase at 10 uM incubated for 48 hrs by PI staining based flow cytometry analysis (reference value: 26%); format: functional
HCT-116 [6] = experiment: Cytotoxicity against human HCT-116 cells incubated for 72 hrs by MTT assay; format: functional, cell-based; conditions: HCT-116, 72 h
[7] = biological target: Poly [ADP-ribose] polymerase 1 (Homo sapiens) (UniProt P09874); experiment: Inhibition of recombinant human PARP1 at 30 uM incubated for 10 mins relative to control
Chain of Poly [ADP-ribose] polymerase 1 (Homo sapiens) (P09874 whole entry): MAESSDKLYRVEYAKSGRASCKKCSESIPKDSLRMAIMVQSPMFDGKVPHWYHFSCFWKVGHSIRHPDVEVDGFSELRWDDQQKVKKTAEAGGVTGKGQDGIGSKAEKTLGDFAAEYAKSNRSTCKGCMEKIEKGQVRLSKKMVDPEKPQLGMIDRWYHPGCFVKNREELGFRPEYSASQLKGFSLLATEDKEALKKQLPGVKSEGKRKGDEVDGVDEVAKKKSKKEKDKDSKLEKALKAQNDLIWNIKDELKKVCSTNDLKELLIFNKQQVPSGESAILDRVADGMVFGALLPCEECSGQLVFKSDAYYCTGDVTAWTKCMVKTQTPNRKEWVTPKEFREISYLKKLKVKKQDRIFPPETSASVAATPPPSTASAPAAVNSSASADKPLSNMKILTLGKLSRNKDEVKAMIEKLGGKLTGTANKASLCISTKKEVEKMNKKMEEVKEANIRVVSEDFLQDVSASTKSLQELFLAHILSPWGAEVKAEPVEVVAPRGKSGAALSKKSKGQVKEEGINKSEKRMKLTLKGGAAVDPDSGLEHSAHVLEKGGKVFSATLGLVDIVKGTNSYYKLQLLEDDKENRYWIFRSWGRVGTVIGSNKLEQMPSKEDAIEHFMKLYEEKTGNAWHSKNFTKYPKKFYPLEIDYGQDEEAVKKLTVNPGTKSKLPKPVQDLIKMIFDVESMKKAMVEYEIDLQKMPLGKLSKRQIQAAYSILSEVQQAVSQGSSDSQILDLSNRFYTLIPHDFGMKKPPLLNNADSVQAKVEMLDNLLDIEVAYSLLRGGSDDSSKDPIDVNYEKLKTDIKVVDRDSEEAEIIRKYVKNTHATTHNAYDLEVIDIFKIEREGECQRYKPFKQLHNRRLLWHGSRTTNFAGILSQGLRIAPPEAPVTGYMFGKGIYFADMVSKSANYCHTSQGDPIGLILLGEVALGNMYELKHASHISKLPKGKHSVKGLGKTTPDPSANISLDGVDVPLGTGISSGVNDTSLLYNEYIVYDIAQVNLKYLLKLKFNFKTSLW

MIA PaCa-2 [8] = experiment: Cytotoxicity against human MIA PaCa-2 cells incubated for 72 hrs by MTT assay; format: functional, cell-based; conditions: MIA PaCa-2, 72 h
HCT-116 [9] = experiment: Induction of cell cycle arrest in human HCT-116 cells assessed as accumulation of cells at Sub-G1 phase at 5 uM incubated for 24 hrs by PI staining based flow cytometry analysis (reference value: 1.1 +/- 0.1%); format: functional
[10] = system: DNA topoisomerase 1/Deoxyribonucleic acid (Homo sapiens); experiment: Induction of TOP1-DNA covalent complex stabilization in human HCT-116 cells at 10 to 20 uM by RADAR assay; format: cell-based; conditions: dose 10-20 µM, time 2-6 hrs, TDE = time-dependent effect
HCT-116 [11] = experiment: Cytotoxicity against human HCT-116 cells at less than 10 uM incubated for 7 to 10 days by crystal violet staining based assay; format: functional, cell-based; conditions: time 7-10 day
HCT-116 [12] = experiment: Induction of cell cycle arrest in human HCT-116 cells assessed as accumulation of cells at S phase at 5 uM incubated for 48 hrs by PI staining based flow cytometry analysis (reference value: 17%); format: functional
PANC-1 [13] = experiment: Cytotoxicity against human PANC-1 cells incubated for 72 hrs by MTT assay; format: functional, cell-based; conditions: PANC-1, 72 h
[14] = system: DNA topoisomerase 1/Deoxyribonucleic acid (Homo sapiens); experiment: Induction of TOP1-DNA covalent complex stabilization in human HCT-116 cells at 20 uM by immunofluorescence microscopic assay; format: cell-based; conditions: time 2-8 hrs, TDE = time-dependent effect
HCT-116 [15] = experiment: Induction of cell cycle arrest in human HCT-116 cells assessed as accumulation of cells at Sub-G1 phase at 10 uM incubated for 24 hrs by PI staining based flow cytometry analysis (reference value: 1.1 +/- 0.1%); format: functional
[16] = Stability in human plasma incubated for 2 hrs by HPLC analysis; format: ADME, cell-free; conditions: read-out: Stability
HCT-116 [17] = experiment: Induction of PARP1 trapping in human HCT-116 cells assessed as change in PARP1 level in chromatin fraction at 20 uM incubated for 4 to 8 hrs by SDS PAGE analysis; format: functional, cell-based; conditions: time 4-8 hrs
HCT-116 [18] = experiment: Induction of cell cycle arrest in human HCT-116 cells at 5 to 20 uM by PI staining based flow cytometry analysis; format: functional; conditions: dose 5-20 µM, time 24-48 hrs, TDE = time-dependent effect
[19] = biological target: T1, DNA topoisomerase 1 (Homo sapiens) (UniProt P11387); experiment: Inhibition of recombinant human Top1 assessed as reduction in plasmid relaxation at 10 to 20 uM using pUC19 plasmid DNA as substrate measured upto 30 mins by ethidium bromide staining based assay; conditions: dose 10-20 µM
T1 sequence (whole entry): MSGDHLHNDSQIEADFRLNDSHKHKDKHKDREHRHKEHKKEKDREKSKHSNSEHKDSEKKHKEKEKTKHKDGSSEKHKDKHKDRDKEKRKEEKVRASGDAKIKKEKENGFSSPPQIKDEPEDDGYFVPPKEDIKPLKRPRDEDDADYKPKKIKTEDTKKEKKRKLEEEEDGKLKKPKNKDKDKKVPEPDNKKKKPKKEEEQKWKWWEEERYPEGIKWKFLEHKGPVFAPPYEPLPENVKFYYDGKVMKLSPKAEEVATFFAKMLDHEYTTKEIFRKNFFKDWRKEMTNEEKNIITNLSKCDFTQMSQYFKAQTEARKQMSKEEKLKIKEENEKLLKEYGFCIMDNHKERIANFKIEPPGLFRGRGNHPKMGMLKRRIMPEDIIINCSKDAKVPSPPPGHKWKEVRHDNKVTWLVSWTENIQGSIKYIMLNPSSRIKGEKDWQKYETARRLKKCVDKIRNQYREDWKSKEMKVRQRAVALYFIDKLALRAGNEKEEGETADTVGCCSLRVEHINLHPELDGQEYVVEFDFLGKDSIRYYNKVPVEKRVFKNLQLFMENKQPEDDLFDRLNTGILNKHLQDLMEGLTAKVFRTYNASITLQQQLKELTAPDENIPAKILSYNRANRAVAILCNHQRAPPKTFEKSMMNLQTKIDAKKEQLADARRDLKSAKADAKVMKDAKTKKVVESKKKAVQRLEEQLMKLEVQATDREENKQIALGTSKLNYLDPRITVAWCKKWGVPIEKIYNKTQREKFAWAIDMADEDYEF

[20] = system: DNA topoisomerase 1/Deoxyribonucleic acid (Homo sapiens); experiment: Induction of TOP1-DNA covalent complex stabilization in human HCT-116 cells at 10 to 20 uM after 4 to 6 hrs by RADAR assay; format: cell-based; conditions: dose 10-20 µM, time 4-6 hrs
HCT-116 [21] = experiment: Induction of cell cycle arrest in human HCT-116 cells assessed as accumulation of cells at Sub-G1 phase at 20 uM incubated for 24 hrs by PI staining based flow cytometry analysis (reference value: 1.1 +/- 0.1%); format: functional
[22] = Stability in human plasma assessed as compound degradation incubated for 15 mins by HPLC analysis; format: ADME, cell-free; conditions: read-out: Drug degradation
PANC-1 [23] = experiment: Cytotoxicity against human PANC-1 cells at less than 10 uM incubated for 7 to 10 days by crystal violet staining based assay; format: functional, cell-based; conditions: time 7-10 day
HCT-116 [24] = experiment: Induction of cell cycle arrest in human HCT-116 cells assessed as accumulation of cells at Sub-G1 phase at 20 uM incubated for 48 hrs by PI staining based flow cytometry analysis (reference value: 2.7 +/- 0.4%); format: functional
HCT-116 [25] = experiment: Induction of DNA double stranded break in human HCT-116 cells assessed as increase in 53BP1 level at 20 uM after 4 to 8 hrs by immunofluorescence assay; format: functional, cell-based; conditions: time 4-8 hrs
[26] = biological target: Poly [ADP-ribose] polymerase 1 (Homo sapiens) (UniProt P09874); experiment: Inhibition of recombinant human PARP1 incubated for 10 mins; conditions: dose 10-30 µM
HCT-116 [27] = experiment: Induction of PARylation in human HCT-116 cells at 1 uM incubated for 4 hrs by Western blotting analysis; format: functional, cell-based
MIA PaCa-2 [28] = experiment: Cytotoxicity against human MIA PaCa-2 cells at less than 10 uM incubated for 7 to 10 days by crystal violet staining based assay; format: functional, cell-based; conditions: time 7-10 day

SMILES: O=C1c2cccc3cccc(c23)C(=O)N1CCSc1nnc(Cn2nc(Cc3ccc(F)cc3)c3ccccc3c2=O)o1
- Activity (HCT-116 [1]): 39%
- Activity (HCT-116 [2]): 44.2%
- Activity (HCT-116 [3]): Active
- Activity [4]: Dose-Dependent Effect
- Activity (HCT-116 [5]): 32%
- IC50 (HCT-116 [6]): 4 µM
- inhibition [7]: 35%
- IC50 (MIA PaCa-2 [8]): 4.5 µM
- Activity (HCT-116 [9]): 23.8%
- Activity [10]: Tde
- Activity (HCT-116 [11]): Active
- Activity (HCT-116 [12]): 30%
- IC50 (PANC-1 [13]): 4 µM
- Activity [14]: Tde
- Activity (HCT-116 [15]): 30.8%
- remaining at 2 h [16]: > 70%
- Activity (HCT-116 [17]): inactive
- Activity (HCT-116 [18]): Tde
- inhibition [19]: Active
- Activity [20]: Active
- Activity (HCT-116 [21]): 39.1%
- metabolised at 0.25 h [22]: 20%
- Activity (PANC-1 [23]): Active
- Activity (HCT-116 [24]): 57%
- Activity (HCT-116 [25]): Active
- inhibition [26]: Dose-Dependent Effect
- Activity (HCT-116 [27]): Active
- Activity (MIA PaCa-2 [28]): Active
